≈ marks a conversion by molar mass, not a printed value.
What was measured:
Test in all cases: MIC, broth micro dilution assay (NCCLS)
Type in all cases: cell-based
[1] = test system: Enterococcus faecalis A20688; conditions: Mueller-Hinton medium, 35° C., 18 hours
Procedure: (§1) The serial broth dilution method used Mueller-Hinton medium except for the Streptococcus pneumoniae which was tested in 50% Mueller-Hinton medium and 50% Todd Hewitt medium. The final bacterial inoculate contained approximately 5×10^5 cfu/well and was run on microtiter plates. The volume of each well was 100 μL and the plates were incubated at 35° C. for 18 hours in ambient air. The MIC was defined as the lowest drug concentration that prevented visible growth.

[2] = test system: Staphylococcus aureus A15090; conditions: Mueller-Hinton medium, 35° C., 18 hours
Procedure: as §1

[3] = test system: Streptococcus pneumoniae A28272; conditions: 50% Mueller-Hinton medium and 50% Todd Hewitt medium, 35° C., 18 hours
Procedure: as §1

Row | MIC (μg/mL) Enterococcus faecalis A20688 [1] [µg/mL] | MIC (μg/mL) Staphylococcus aureus A15090 [2] [µg/mL] | MIC (μg/mL) Streptococcus pneumoniae A28272 [3] [µg/mL] | Compound
1 | 2.0 (≈ 1.32 µM) | 1.0 (≈ 0.662 µM) | 0.25 (≈ 0.165 µM) | C=C(NC(=O)c1csc(-c2nc3c(cc2OCC(O)CO)-c2nc(cs2)C(=O)NC(C(C)O)C(=O)NC(=C(C)OC)c2nc(cs2)C(=O)NC2c4nc(cs4)C(=O)NC(COC(=O)c4c5c6c(cccc6n4O)COC(=O)C(OC4CC(C)(O)C(N(C)C)C(C)O4)C2OC5)c2nc-3cs2)n1)C(N)=O (stereo not drawn) [Example 3]
2 | 0.06 (≈ 0.0396 µM) | 0.03 (≈ 0.0198 µM) | 0.0005 (≈ 0.00033 µM) | C#CCOc1cc2c(nc1-c1nc(C(=O)NC(=C)C(N)=O)cs1)-c1csc(n1)C1COC(=O)c3c4c5c(cccc5n3OCC#C)COC(=O)C(OC3CC(C)(O)C(N(C)C)C(C)O3)C(OC4)C(NC(=O)c3csc(n3)C(=C(C)OC)NC(=O)C(C(C)O)NC(=O)c3csc-2n3)c2nc(cs2)C(=O)N1 (stereo not drawn) [Example 75]
3 | 2.0 | >128 | 0.5 | C=C(NC(=O)c1csc(-c2nc3c(cc2O)-c2nc(cs2)C(=O)NC(C(C)O)C(=O)NC(=C(C)OC)c2nc(cs2)C(=O)NC2c4nc(cs4)C(=O)NC(COC(=O)c4c5c6c(cccc6n4OCCC[N+](C)(C)C)COC(=O)C(OC4CC(C)(O)C(N(C)C)C(C)O4)C2OC5)c2nc-3cs2)n1)C(N)=O (stereo not drawn) [Example 14]
4 | 0.5 (≈ 0.316 µM) | 0.25 (≈ 0.158 µM) | 0.03 (≈ 0.019 µM) | C=C(NC(=O)c1csc(-c2nc3c(cc2O)-c2nc(cs2)C(=O)NC(C(C)O)C(=O)NC(=C(C)OC)c2nc(cs2)C(=O)NC2c4nc(cs4)C(=O)NC(COC(=O)c4c5c6c(cccc6n4OP(=O)(O)OCCCl)COC(=O)C(OC4CC(C)(O)C(N(C)C)C(C)O4)C2OC5)c2nc-3cs2)n1)C(N)=O (stereo not drawn) [Example 65]

The remaining lines, values behind:

Row | Compound | MIC (μg/mL) Enterococcus faecalis A20688 [1] [µg/mL] | MIC (μg/mL) Staphylococcus aureus A15090 [2] [µg/mL] | MIC (μg/mL) Streptococcus pneumoniae A28272 [3] [µg/mL]
5 | C=C(NC(=O)c1csc(-c2nc3c(cc2O)-c2nc(cs2)C(=O)NC(C(C)O)C(=O)NC(=C(C)OC)c2nc(cs2)C(=O)NC2c4nc(cs4)C(=O)NC(COC(=O)c4c5c6c(cccc6n4OCOP(=O)(OCC)OCC)COC(=O)C(OC4CC(C)(O)C(N(C)C)C(C)O4)C2OC5)c2nc-3cs2)n1)C(N)=O (stereo not drawn) [Example 41] | 0.03 (≈ 0.0187 µM) | 0.015 (≈ 0.00935 µM) | 0.001 (≈ 0.000624 µM)
6 | COC(C)=C1NC(=O)C(C(C)O)NC(=O)c2csc(n2)-c2cc(OCC(=O)OC(C)(C)C)c(-c3nc(C(N)=O)cs3)nc2-c2csc(n2)C2COC(=O)c3c4c5c(cccc5n3OCC(=O)OC(C)(C)C)COC(=O)C(OC3CC(C)(O)C(N(C)C)C(C)O3)C(OC4)C(NC(=O)c3csc1n3)c1nc(cs1)C(=O)N2 (stereo not drawn) [Example 82] | 0.06 (≈ 0.0376 µM) | 0.03 (≈ 0.0188 µM) | 0.015 (≈ 0.00939 µM)
7 | C=C(NC(=O)c1csc(-c2nc3c(cc2O)-c2nc(cs2)C(=O)NC(C(C)O)C(=O)NC(=C(C)OC)c2nc(cs2)C(=O)NC2c4nc(cs4)C(=O)NC(COC(=O)c4c5c6c(cccc6n4OCCn4ccnc4)COC(=O)C(OC4CC(C)(O)C(N(C)C)C(C)O4)C2OC5)c2nc-3cs2)n1)C(N)=O (stereo not drawn) [Example 46] | 1.0 (≈ 0.653 µM) | 0.5 (≈ 0.326 µM) | 0.015 (≈ 0.00979 µM)
8 | C=C(NC(=O)c1csc(-c2nc3c(cc2OC(=O)C(C)(C)C(=O)OCc2ccccc2)-c2nc(cs2)C(=O)NC(C(C)O)C(=O)NC(=C(C)OC)c2nc(cs2)C(=O)NC2c4nc(cs4)C(=O)NC(COC(=O)c4c5c6c(cccc6n4O)COC(=O)C(OC4CC(C)(O)C(N(C)C)C(C)O4)C2OC5)c2nc-3cs2)n1)C(N)=O (stereo not drawn) [Example 31] | 0.5 (≈ 0.305 µM) | 0.25 (≈ 0.152 µM) | 0.06 (≈ 0.0365 µM)
